The source of these data is patent US20070185161A1, “Bicyclic substituted indole-derivative steroid hormone nuclear receptor modulators” (priority 2004, published 2007).

One assay concerns the target T1, human MR (Homo sapiens, UniProt P08235).
T1 construct: The full length human MR gene is cloned from a human kidney or human brain cDNA library; made in house; host or cells: SF9 insect cells (baculovirus)
T1 sequence (P08235 1-984): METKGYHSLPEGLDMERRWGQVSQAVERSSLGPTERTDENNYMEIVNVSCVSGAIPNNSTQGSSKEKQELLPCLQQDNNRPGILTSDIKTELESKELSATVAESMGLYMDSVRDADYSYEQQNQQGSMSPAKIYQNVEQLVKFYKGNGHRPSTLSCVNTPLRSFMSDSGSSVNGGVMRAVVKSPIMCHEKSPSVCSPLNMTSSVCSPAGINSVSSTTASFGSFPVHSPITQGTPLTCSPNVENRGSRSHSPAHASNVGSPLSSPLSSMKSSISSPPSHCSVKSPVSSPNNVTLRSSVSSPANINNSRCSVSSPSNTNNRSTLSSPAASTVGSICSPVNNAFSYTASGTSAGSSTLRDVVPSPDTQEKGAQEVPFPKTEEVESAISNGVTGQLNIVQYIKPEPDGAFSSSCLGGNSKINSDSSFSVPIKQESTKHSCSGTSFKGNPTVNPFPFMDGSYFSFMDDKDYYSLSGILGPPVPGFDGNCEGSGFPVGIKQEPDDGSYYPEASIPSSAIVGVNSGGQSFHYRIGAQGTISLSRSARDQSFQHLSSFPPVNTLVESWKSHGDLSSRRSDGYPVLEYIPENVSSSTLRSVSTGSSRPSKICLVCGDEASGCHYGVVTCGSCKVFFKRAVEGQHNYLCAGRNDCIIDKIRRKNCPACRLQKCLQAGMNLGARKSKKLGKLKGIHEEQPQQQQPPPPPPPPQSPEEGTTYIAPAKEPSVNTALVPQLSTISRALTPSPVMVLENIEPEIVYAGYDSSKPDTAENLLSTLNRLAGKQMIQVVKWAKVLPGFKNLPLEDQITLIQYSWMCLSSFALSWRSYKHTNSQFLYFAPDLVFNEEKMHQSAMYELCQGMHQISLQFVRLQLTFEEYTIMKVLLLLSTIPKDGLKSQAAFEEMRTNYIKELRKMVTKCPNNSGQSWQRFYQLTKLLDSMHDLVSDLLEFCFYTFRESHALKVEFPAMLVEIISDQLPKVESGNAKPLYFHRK
Nature of the assay: Mineralocorticoid Receptor Binding Assay (Method 1). To be noted: [3H]-aldosterone, racemic mixture unless otherwise indicated. The protocol: The full length human MR gene is cloned from a human kidney or human brain cDNA library. Briefly, using synthetic oligonucleotide primers (Eli Lilly and Company, Indianapolis) directed to nucleotides 20-54 and 3700-3666 of the human MR, polymerase chain reaction (PCR) is performed under standard conditions using a human cDNA library. The PCR reaction is performed in a final volume of 50 μl containing about 1 μl of a 50× stock solution of polymerase; about 1 μl of a 50× stock solution of dNTP; about 5 μl of an appropriate PCR buffer; about 1 μl of each primer; about 5 μl of a H. kidney or H. brain cDNA library; and about 36 μl of water. The reaction is allowed to denature for about 30 seconds at 95 degrees Celsius, anneal for about 30 seconds at 55 degrees Celsius, and extend for about 5 minutes at 72 degrees Celsius, the sequence being repeated for a total of about 35 cycles. The desired PCR product (3.68 Kb) is confirmed by gel electrophoresis and subsequently cut from the gel and stored at about −20 degrees Celsius until extraction. To extract the cDNA product from the agarose gel, the QIAEX II Gel Extraction protocol (QIAGEN, Inc.) is employed according to the manufacturer's instructions. Following extraction, the MR cDNA is cloned into an appropriate cloning vector (Zero Blunt TOPO PCR Cloning Kit (Invitrogen, Inc.) and a pAcHLT-baculovirus transfer vector (B.D./Pharminogen), then expressed in SF9 insect cells, essentially according to manufacturer's instructions. Sf9 cells are grown at a scale where gram quantity cell pellets are obtained for subsequent use in the MR binding assay. Harvested cell pellets are lysed by repeated freeze-thaw cycles (about 4) in a suitable lysis buffer then centrifuged at about 1×10^3 G (with the supernatant being saved for future assays).
MR binding assays are performed in a final total volume of about 250 μl containing about 20-25 μg of protein and 0.5 nM of [^3H]-aldosterone plus varying concentrations of test compound or vehicle. The assay binding buffer consists of 30 mM sodium molybdate, 30 mM of TRIS-HCl, 5 mM sodium phosphate, 5 mM sodium pyrophosphate, and about 10% glycerol, pH=7.5.
Briefly, assays are prepared at RT in 96-well Falcon 3072 plates, each well containing 210 μl of binding buffer, 10 μl of [^3H]-aldosterone, 10 μl of test compound/vehicle, and 20 μl of the resuspended receptor protein extract. Incubations are carried out at 4 degrees Celsius with shaking for about 16 hours. 200 μl aliquots of each incubation are filtered onto Millipore HA 0.45 micron 96-well filter plates, pre-moistened with cold 30 mM TRIS-HCl. The filter plates are suctioned dry with vacuum and immediately washed 3× with cold 30 mM TRIS-HCl. The plates are then punched out and the amount of receptor-ligand complex is determined by liquid scintillation counting using 4 ml of Ready Protein Plus™ liquid scintillation cocktail.
IC50 values (defined as the concentration of test compound required to decrease [^3H]-aldosterone binding by 50%) are then determined. Ki values for each respective test compound can then be calculated by application of the Cheng-Prusoff equation as described in Cheng et al., Relationship Between The Inhibition Constant (Ki) and The Concentration of Inhibitor Which Causes 50% Inhibition (IC50) of an Enzymatic Reaction, Biochem. Pharmacol., 22: 3099-31088; (1973).

In assay [1] the target is T2, human GR (glucocorticoid receptor) (Homo sapiens, UniProt P04150).
T2 construct: expressed in transfected cells; host or cells: 293 cells
T2 sequence (P04150 1-777): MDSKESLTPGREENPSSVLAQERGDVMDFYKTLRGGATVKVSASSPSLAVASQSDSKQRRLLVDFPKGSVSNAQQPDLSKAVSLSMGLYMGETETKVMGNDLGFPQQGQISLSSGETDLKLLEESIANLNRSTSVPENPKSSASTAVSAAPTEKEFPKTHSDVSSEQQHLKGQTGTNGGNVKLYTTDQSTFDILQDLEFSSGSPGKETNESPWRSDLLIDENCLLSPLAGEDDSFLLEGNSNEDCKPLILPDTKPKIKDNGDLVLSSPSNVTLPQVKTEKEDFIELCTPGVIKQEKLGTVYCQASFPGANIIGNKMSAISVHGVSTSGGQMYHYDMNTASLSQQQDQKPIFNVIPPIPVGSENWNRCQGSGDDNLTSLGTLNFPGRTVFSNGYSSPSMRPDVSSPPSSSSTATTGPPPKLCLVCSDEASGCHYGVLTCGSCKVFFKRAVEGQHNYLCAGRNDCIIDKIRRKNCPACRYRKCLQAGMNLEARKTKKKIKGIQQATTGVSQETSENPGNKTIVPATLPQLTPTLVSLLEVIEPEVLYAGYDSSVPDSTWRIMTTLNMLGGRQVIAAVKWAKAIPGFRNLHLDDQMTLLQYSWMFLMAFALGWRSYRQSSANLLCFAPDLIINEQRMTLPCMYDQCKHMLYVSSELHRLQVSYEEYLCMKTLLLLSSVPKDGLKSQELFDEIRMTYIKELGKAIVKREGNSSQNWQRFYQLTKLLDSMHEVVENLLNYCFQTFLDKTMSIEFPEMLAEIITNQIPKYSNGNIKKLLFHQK
Nature of the assay: Alternative Binding Assay Protocol (Method 2), GR. To be noted: 3H-dexamethasone, 293-GR lysate, racemic mixture unless otherwise indicated. The protocol:
Cell lysates from 293 cells overexpressing human GR (glucocorticoid receptor), AR (androgen receptor), MR (mineralocorticoid receptor) or PR (progesterone receptor) are used for competition binding assays to determine Ki values for test compounds. Briefly, competition binding assays are run in a buffer containing 20 mM Hepes, pH 7.6, 0.2 mM EDTA, 75 mM NaCl, 1.5 mM MgCl2, 20% glycerol, 20 mM sodium molybdate, 0.2 mM DTT, 20 ug/ml aprotinin and 20 ug/ml leupeptin, using either 0.3 nM ^3H-dexamethasone for GR binding, 0.36 nM ^3H-methyltrienolone for AR binding, 0.25 nM ^3H-aldosterone for MR binding, or 0.29 nM ^3H-methyltrienolone for PR binding, and either 20 ug 293-GR lysate, 22 ug 293-AR lysate, 20 ug 293-MR lysate or 40 ug 293-PR lysate per well. Competing compounds are added at various concentraions in half-log increments. Non-specific binding is determined in the presence of 500 nM dexamethasone for GR binding, 500 nM aldosterone for MR binding, or 500 nM methyltrienolone for AR and PR binding,. The binding reaction (140 μl) is incubated for overnight at […], then 70 μl of cold charcoal-dextran buffer (containing per 50 ml of assay buffer, 0.75 g of charcoal and 0.25 g of dextran) is added to each reaction. Plates are mixed 8 minutes on an orbital shaker at 4° C. Plates are then centrifuged at 3,000 rpm at 4° C. for 10 minutes. An aliquot of 120 μl of the mix is transferred to another 96-well plate and 175 μl of Wallac Optiphase “Hisafe 3” scintillation fluid is added to each well. Plates are sealed and shaken vigorously on an orbital shaker. After an incubation of 2 hrs, plates are read in a Wallac Microbeta counter. The data is used to calculate an IC50 and % Inhibition at 10 μM. The Kd for ^3H-dexamethasone for GR binding, ^3H-methyltrienolone for AR binding, ^3H-aldosterone for MR binding, or ^3H-methyltrienolone for PR binding, is determined by saturation binding. The IC50 values for compounds are converted to Ki using Cheng-Prusoff equation and the Kd determined by saturation binding assay.

The subject of assay [2] is patients suffering from advanced CHF. To be noted: in combination with standard CHF therapy; cited from earlier work.

What is called Ki is a dissociation constant, usually derived from enzyme kinetics or from competition with a known ligand. Take `CC1(c2c[nH]c3c(NS(C)(=O)=O)cccc23)CCCc2cc(F)cc(F)c21` (racemic) [Example 30, N-[3-(6,8-Difluoro-1-methyl-1,2,3,4-tetrahydro-naphthalen-1-yl)-1H-indol-7-yl]-methanesulfonamide]: the Ki at human MR is no more than 500 nM.

On to `CC1(c2c[nH]c3c(NS(C)(=O)=O)cccc23)CCCc2cc(F)cc(F)c21` (single isomer, unassigned) [Example 30A, N-[3-(6,8-Difluoro-1-methyl-1,2,3,4-tetrahydro-naphthalen-1-yl)-1H-indol-7-yl]-methanesulfonamide], for which the Ki at human MR is no more than 500 nM.

Take `CC1(c2c[nH]c3c(NS(C)(=O)=O)cccc23)CCCc2cc(F)cc(F)c21` (single isomer, unassigned) [Example 30B, N-[3-(6,8-Difluoro-1-methyl-1,2,3,4-tetrahydro-naphthalen-1-yl)-1H-indol-7-yl]-methanesulfonamide]: at human MR, the Ki was no more than 500 nM.

With `CCC1(c2c[nH]c3c(NS(C)(=O)=O)cccc23)CCCc2cc(F)cc(F)c21` (single isomer, unassigned) [Example 31A, N-[3-(1-Ethyl-6,8-difluoro-1,2,3,4-tetrahydro-naphthalen-1-yl)-1H-indol-7-yl]-methanesulfonamide], the Ki at human MR is no more than 500 nM.

On to `CCC1(c2c[nH]c3c(NS(C)(=O)=O)cccc23)CCCc2cc(F)cc(F)c21` (single isomer, unassigned) [Example 31B, N-[3-(1-Ethyl-6,8-difluoro-1,2,3,4-tetrahydro-naphthalen-1-yl)-1H-indol-7-yl]-methanesulfonamide], for which the Ki on human MR was no more than 500 nM.

As for `CCC1(c2c[nH]c3ccccc23)CCc2cc(F)ccc21` (centres unmarked) [Example 6, 3-(1-Ethyl-5-fluoro-indan-1-yl)-1H-indole], the Ki on human MR was no more than 500 nM.

As to `CCC1(c2c[nH]c3c(F)cccc23)CCc2cc(F)ccc21` (centres unmarked) [Example 7, 3-(1-Ethyl-5-fluoro-indan-1-yl)-7-fluoro-1H-indole], the Ki at human MR is no more than 500 nM.

For the compound `CCC1(c2c[nH]c3c(Br)cccc23)CCc2cc(F)ccc21` (centres unmarked) [Example 8, 7-Bromo-3-(1-ethyl-5-fluoro-indan-1-yl)-1H-indole], the Ki on human MR is no more than 500 nM.

As for `CCC1(c2c[nH]c3c(Cl)cccc23)CCc2cc(F)ccc21` (centres unmarked) [Example 9, 7-Chloro-3-(1-ethyl-5-fluoro-indan-1-yl)-1H-indole], the Ki on human MR was no more than 500 nM.

`CCc1cccc2c(C3(CC)CCc4cc(F)ccc43)c[nH]c12` (centres unmarked) [Example 10, 7-Ethyl-3-(1-ethyl-5-fluoro-indan-1-yl)-1H-indole]: the Ki on human MR is no more than 1000 nM.

For the compound `CCC1(c2c[nH]c3c(OC)cccc23)CCc2cc(F)ccc21` (centres unmarked) [Example 12, 3-(1-Ethyl-5-fluoro-indan-1-yl)-7-methoxy-1H-indole], the Ki at human MR was no more than 500 nM.

Take `CN(C)CCCC1(c2c[nH]c3c(NS(C)(=O)=O)cccc23)CCc2cc(F)ccc21` (centres unmarked) [Example 43, N-{3-[1-(3-Dimethylamino-propyl)-5-fluoro-indan-1-yl]-1H-indol-7-yl}-methanesulfonamide]: the Ki in assay [1] is no more than 10000 nM.

Regarding `CC(=O)S[C@@H]1CC2=CC(=O)CC[C@]2(C)[C@H]2CC[C@@]3(C)[C@@H](CC[C@@]34CCC(=O)O4)[C@H]12` [spironolactone], in assay [2], the “reduced cardiac related mortality” value is listed as 30% and the “reduced frequency of hospitalization” value is given as 35%.
